Measurements from patent US20090030055A1, “PKC activation as a means for enhancing s[sequence] secretion and improving cognition using bryostatin type compounds” (priority 2002, published 2009).
Entries after “also recorded” stand apart in the source; their conditions may differ.

How the values were obtained:
PKC [1] = test: PKC affinity of bryostatin 1 and bryologs; assay type: binding; settings: times more potent than bryostatin-1
Excerpt: Analogs of bryostatin, commonly referred to as bryologs, are one particular class of PKC activators that are suitable for use in the methods of the present invention. […] Structurally, they are all similar. While bryostatin-1 has two pyran rings and one 6-membered cyclic acetal, in most bryologs one of the pyrans of bryostatin-1 is replaced with a second 6-membered acetal ring. This modification […] the stability of bryologs, relative to bryostatin-1, for example, in both strong acid or base, but has little significance at physiological pH. Bryologs also have a lower molecular weight (ranging from about 600 to 755), as compared to bryostatin-1 (988), a property which facilitates transport across the blood-brain barrier.

PKC [2] = settings: cited from earlier work
Wistar albino rats = test: Morris Water Maze; assay type: in vivo; settings: for learning, escape latency from trial to trial: i.c.v. 1 μl/site of 2 μM, vs vehicle control
Excerpt: (See, for example, Hollister, L. E., 1990, Pharmacopsychiat., 23, (Suppl II) 33-36). The available animal models of memory loss and impaired learning involve measuring the ability of animals to remember a discrete event. These tests include the Morris Water Maze and the passive avoidance procedure. In the Morris Water Maze, animals are allowed to swim in a tank divided into four quadrants, only one of which has a safety platform beneath the water. The platform is removed and the animals are tested for how long they search the correct quadrant verse the incorrect quadrants. In the passive avoidance procedure the animal remembers the distinctive environment in which a mild electric shock is delivered and avoids it on a second occasion. A variant of the passive avoidance procedure makes use of a rodent's preference for dark enclosed environments over light open ones. Further discussion can be found in Crawley, J. N., 1981, Pharmacol. Biochem. Behav., 15, 695-699; Costall, B. et al., 1987, Neuropharmacol., 26, 195-200; Costall, B. et at, 1989, Pharmacol. Biochem. Behav., 32, 777-785; Barnes, J. M. et al., 1989, Br. J. Pharmacol., 98 (Suppl) 693P; Barnes, J. M. et al., 1990, Pharmacol. Biochem. Behav., 35, 955-962.
Wistar albino rats (n=20) weighing between 220-250 g were housed for one week with free access to food and water. Stainless steel cannulas were placed bilaterally in each rat, following previously described procedures (49). […] Subsequently, animals were assigned randomly to experimental and control groups. At least 24 h prior to treatment and training, all animals were pre-exposed to the MWM experimental situation by placing them in the water and allowed to swim for 120 s. The training followed standard procedures (49) and consisted of two trials per day for 4 consecutive days. […] The control group received the same volume of vehicle alone, on identical schedule. On the fifth day, the platform was removed and the retention test was conducted. Animals' movements and escape latencies were recorded with an automatic tracking system. […] Acquisition of memory was measured as time spent in the relevant quadrant (5th day). […] Bryostatin-1 is capable of being used at concentrations to improve cognition that are 300 to 300,000 times lower than the concentration used to treat tumors.

[3] = test system: sAPPα secretion, AD cell line AG06848; test: sAPPα secretion immunoblot, AD fibroblasts; assay type: cell-based, human; settings: for secretion of sAPPα: AD cell line AG06848, three hours of treatment, relative to DMSO
Protocol: (§1) Cultured skin fibroblasts were obtained from the Coriell Cell Repositories and grown using the general guidelines established for their culture with slight modifications (Cristofalo & Carpentier, 1988; Hirashima et al., 1996). The culture medium in which cells were grown was Dulbecco's modified Eagle's medium (GIBCO) supplemented with 10% fetal calf serum (Biofluids, Inc.). Fibroblasts from control cell lines (AC), cases AG07141 and AG06241, and a familial AD (FAD) case (AG06848) were utilized.
(§2) Cells grown to confluence in 6 cm Petri dishes for 5-7 days. On the day of the experiment, medium was replaced with DMEM without serum and left undisturbed for 2 h. Upon completion of the 2 hour serum deprivation; treatment was achieved by direct application to the medium of Bryo, BL and DMSO at the appropriate concentrations. (0.1 and 0.01 nM for bryostatin; 0.1 nM, 0.1 μM, and 1 μM BL). DMSO was less than 1% in all cases. In most cases, medium was collected and processed after 3 hours of treatment for sAPP secretion. Other time points were also used to establish a time course of secretion.
sAPP—Determinations/Measurements of sAPPα
The concentration of secreted APP was measured using conventional immunoblotting techniques, with minor modifications the protocol. Precipitated protein extracts from each dish/treatment were loaded to freshly prepared 10% acrylamide Tris-HCl minigels and separated by SDPAGE. The volume of sample loaded was corrected for total cell protein per dish. Proteins were then electrophoretically transferred to PVDF membranes. Membranes were saturated with 5% non-fat dry milk to block non-specific binding. Blocked membranes were incubated overnight at 4° C. with the commercially available antibody 6E10 (1:500), which recognizes sAPP-alpha in the conditioned medium (SENETEK). After washing, the membranes were incubated at room temperature with horseradish peroxidase conjugated anti-mouse IgG secondary antibody (Jackson's Laboratories). The signal was then detected using enhanced chemiluminescence followed by exposure of Hyperfilm ECL (Amersham). The band intensities were quantified by densitometry using a BioRad GS-800 calibrated scanning densitometer and Multianalyst software (BioRad).

[4] = humans; cited from earlier work
[5] = test system: sAPPα secretion, control cell lines AG07141 and AG06241; test: sAPPα secretion immunoblot, control fibroblasts; assay type: cell-based, human; settings: two control cell lines pooled, 0.1 nM, compared to DMSO alone
Protocol: as §1
as §2, with “In most cases, medium was collected and processed after 3 hours of treatment for sAPP secretion. Other time points were also used to establish a time course of secretion.” left out
The concentration of secreted APP was measured using conventional immunoblotting techniques, with minor modifications the protocol. […] The signal was then detected using enhanced chemiluminescence followed by exposure of Hyperfilm ECL (Amersham). The band intensities were quantified by densitometry using a BioRad GS-800 calibrated scanning densitometer and Multianalyst software (BioRad).

[6] = test system: double transgenic mice carrying the V7171 mutation and a Presenilin-1 (PS1) mutation; test: Double transgenic mice (V7171 and Presenilin-1 mutation) treated with Bryostatin-1; assay type: in vivo; settings: 40 μg/k.g. i.p. three times a week
Protocol: A second transgenic study using similar procedures/testing and protocol was performed using double transgenic mice carrying the V7171 mutation and a Presenilin-1 (PS1) mutation, which causes accelerated amyloid formation, with the following major differences. Approximately 40 mice including both treated and controls were utilized. Treatment began at approximately 3 weeks of age and consisted of treatments with 40 μg/k.g. i.p. three times a week using Bryostatin-1. Controls were given vehicle alone. The treatment continued for approximately seven months before the morbidity rate of the non-treated animals necessitated termination of the experiment (see FIG. 10).

PKC-α = biological target: T1, PKC-α (Homo sapiens, UniProt P17252); test: Immunoblot assay for PKC translocation, α isoenzyme; assay type: cell-based
T1 construct: endogenous in cells; host or cells: human fibroblasts (AD patient and control lines)
Protocol: Immunoblot experiments were conducted using well-established procedures (Dunbar, 1994). Cells were grown to confluency (˜90%) in 6 cm Petri dishes. […] Fibroblasts were washed twice with ice-cold PBS, scraped in PBS, and collected by low-speed centrifugation. The pellets were re-suspended in the following homogenization buffer: 20 mM Tris-HCl, pH 7.5, 2 mM EDTA, 2 mM EGTA, 5 mM DTT, 0.32 M sucrose, and protease inhibitor cocktail (Sigma). […] The pellets were homogenized in the same buffer containing 1.0% Triton X-100, incubated in ice for 45 minutes, and centrifuged at ˜12,000 g for 20 minutes. The supernatant from this batch was used as the membranous fraction. After protein determination, 20 μg of protein were diluted in 2× electrophoresis sample buffer (Novex), boiled for 5 minutes, run on 10% acrylamide gel, and transferred electrophoretically to a PVDF membrane. The membrane was saturated with 5% milk blocker by incubating it at room temperature for an hour. The primary antibody for PKC isoform (Transduction Laboratories) was diluted (1:1000) in blocking solution and incubated with the membrane overnight at 4° C. […] The band intensities were quantified by densitometry using a BioRad GS-800 calibrated scanning densitometer and Multianalyst software (BioRad).

[7] = approximately seven months, vs vehicle

Q: What does the source list for `CCCCCCCC(=O)O[C@H]1/C(=C/C(=O)OC)C[C@H]2C[C@H](CO)OC(=O)C[C@H](O)C[C@@H]3CCC[C@H](C[C@@H]4CCO[C@H](/C=C/C(C)(C)[C@]1(O)O2)O4)O3` [Analog 1]?
A: potency relative to bryostatin-1 (PKC [1]): about 100 times; affinity for PKC, in words (PKC [2]): highest affinity; Ki (PKC [2]; read-out: PKC Affin): 0.25 nM

Q: Which “time to improved cognition over control rats” value (Wistar albino rats; i.c.v.) does the source give for `CCC/C=C/C=C/C(=O)O[C@H]1/C(=C/C(=O)OC)C[C@H]2C[C@H]([C@@H](C)O)OC(=O)C[C@H](O)C[C@@H]3C[C@H](OC(C)=O)C(C)(C)[C@](O)(C[C@@H]4C/C(=C/C(=O)OC)C[C@H](/C=C/C(C)(C)[C@]1(O)O2)O4)O3` [Bryostatin 1] here?
A: Its value is at most 2 days.

Q: What about the “learning, escape latency from trial to trial” value (Wistar albino rats; listed as bryostatin) of the same compound?
A: The value was “significantly faster”.

Q: What about the “learning, escape latency from trial to trial” value (Wistar albino rats; listed as bryostatin 1) of the same compound?
A: The value was “significantly lower”.

Q: And the “memory or retention, time spent in the relevant quadrant” value (Wistar albino rats; i.c.v., 5th day, platform removed, vs controls)?
A: The value was “significantly enhanced”.

Q: And the “sAPPα secretion, time-course” value ([3]; 0.01 nM compared with 0.1 nM, 2 and 3 h of incubation)?
A: Its value is “undistinguishable from the higher”.

Q: And the “sAPPα secretion, time-course” value ([3]; 0.01 nM, only after 60 min of incubation)?
A: The value was “robust enhancement”.

Q: And the “sAPPα secretion, time-course” value ([3]; 0.1 nM, 2 and 3 h compared with 60 min)?
A: Its value is “did not substantially differ from 60 min incubation”.

Q: And the “sAPPα secretion, time-course” value ([3]; 0.1 nM, 30 and 60 min)?
A: The value was “Progressive and proportional increases”.

Q: And the “sAPPα secretion, time-course” value ([3]; 0.1 nM, 15 min incubation)?
A: The value was “marked increase”.

Q: And the “secretion of sAPPα” value ([3]; 0.1 nM, listed as Bryostatin)?
A: The value was “dramatically enhanced”.

Q: And the “secretion of sAPPα” value ([3]; 0.1 nM, listed as bryostatin)?
A: Its value is “dramatic increase”.

Q: What about the main adverse reaction [4] of the same compound?
A: The main adverse reaction was “myalgia”.

Q: What about the “maximum dose, limited by myalgia” value [4] of the same compound?
A: Its value is 40 mg/m2.

Q: And the “secretion of sAPPα” value ([5]; listed as Bryostatin)?
A: Its value is “effective in enhancing secretion”.

Q: What about the “secretion of sAPPα” value ([5]; listed as bryostatin) of the same compound?
A: Its value is “enhanced the secretion of sAPPα”.

Q: What about the “percent plaque load, Thioflavin S staining” value ([6]; approximately seven months, vs controls) of the same compound?
A: Its value is “decrease in percent plaque load”.

Q: What about the “behavioural differences, water testing” value [6, 7] of the same compound?
A: The value was “not significant”.

Q: And the “total APP” value [6, 7]?
A: The value was “overall lower amount; also recorded: noticeable change”.

Q: What about the “life span, life percentage over time” value ([6]; vs controls, listed as Bryostatin) of the same compound?
A: The value was “increase in life span”.

Q: What about the “life span, life percentage over time” value ([6]; vs controls, listed as Bryostatin-1) of the same compound?
A: The value was “greater life percentage over time”.

Q: And the “time of maximal PKC translocation (measure of activation)” value (PKC-α)?
A: The value was 30 min.
